Among the test systems are UACC-62; SN12C; SK-OV-3; MOLT-4; M14; SW-620; OVCAR-4; SF-295; U-251; IGROV-1; SNB-19; 786-0; CAKI-1; HL-60; TK-10; SK-MEL-28; SF-268; UO-31; CCRF-CEM; HCT-15.
What all share (assay): NCI-60 cell line screen, 48 h

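Assay format: 96-well plates, 48-hour exposure. Abbreviation: GI50, concentration required for 50% inhibition of growth.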 The source made the active and inactive calls. Cut-off read from the data, not from the text of the source: active = GI50 up to about 1.1 µM and inactive = higher.

This is an account of results in ChEMBL document CHEMBL1201862, “PubChem BioAssay data set” (2004).

Regarding `CN(C(=O)C12C3C4C1C1C2C3C41C#N)C(C)(C)C` (configuration not stated), the GI50 in the assay on UACC-62, in the assay on SN12C, with SK-OV-3, in the assay on MOLT-4, in the assay on M14 and with SW-620 was > 100 µM (inactive) each time. Further, the GI50 in the assay with OVCAR-4, in the assay with SF-295, in the assay with U-251, in the assay with IGROV-1, in the assay with SNB-19 and in the assay with 786-0 was > 100 µM (inactive) in each case. The GI50 in the assay on CAKI-1, with HL-60, in the assay on TK-10, with SK-MEL-28, with SF-268 and in the assay with UO-31 was > 100 µM (inactive) each time. The GI50 in the assay on CCRF-CEM was > 100 µM (inactive).
As to `CCCC(=O)c1ccc2c(ccc(=O)n2C)c1`, the GI50 was 24.3 µM (inactive) with UACC-62; greater than 100 µM in the assay on HCT-15; > 100 µM (inactive) in the assay on SN12C; > 100 µM (inactive) in the assay on SK-OV-3; > 100 µM (inactive) in the assay on MOLT-4; > 100 µM (inactive) with M14. The GI50 in the assay with SW-620 was > 100 µM (inactive); in the assay on OVCAR-4, 66.7 µM (inactive); with SF-295, > 100 µM (inactive); in the assay with U-251 it was > 100 µM (inactive); in the assay on IGROV-1, > 100 µM (inactive); in the assay on SNB-19, > 100 µM (inactive). In addition, the GI50 was > 100 µM (inactive) with 786-0; 52.7 µM (inactive) with CAKI-1; > 100 µM (inactive) with HL-60; > 100 µM (inactive) in the assay on TK-10; > 100 µM (inactive) with SK-MEL-28; > 100 µM (inactive) with SF-268. The GI50 with CCRF-CEM is > 100 µM (inactive).
On to `CC(C)(C)c1cc(CCCCCCCC2(CCCCCCCc3cc(C(C)(C)C)cc(C(C)(C)C)c3)OC(COCCOCCCCCC#N)C(COCCOCCCCCC#N)O2)cc(C(C)(C)C)c1` (configuration not stated), for which the GI50 in the assay with UACC-62 was > 100 µM (inactive); in the assay on HCT-15 it was greater than 100 µM; with SN12C, > 100 µM (inactive); in the assay on SK-OV-3, > 100 µM (inactive); in the assay on M14 it was > 100 µM (inactive); in the assay on SW-620, > 100 µM (inactive). Moreover, the GI50 in the assay on OVCAR-4, with SF-295, with U-251, with IGROV-1, in the assay with SNB-19 and in the assay on 786-0 was > 100 µM (inactive) in each case. Further, the GI50 in the assay with CAKI-1, in the assay with HL-60, in the assay on TK-10, in the assay on SK-MEL-28, in the assay on SF-268 and in the assay with UO-31 was > 100 µM (inactive) in each case. The GI50 in the assay on CCRF-CEM was > 100 µM (inactive).
`CC(C)=CCC[C@@H](C)C1=C(O)C(=O)C(C)=C(c2c(I)c(=O)n(C)c(=O)n2C)C1=O`: the GI50 in the assay on HCT-15 was greater than 100 µM; in the assay with SN12C, > 100 µM (inactive); in the assay with SK-OV-3, > 100 µM (inactive); in the assay on MOLT-4, 36.8 µM (inactive); in the assay with M14, > 100 µM (inactive); in the assay on SW-620, > 100 µM (inactive). The GI50 with OVCAR-4 is > 100 µM (inactive); with SF-295 it was > 100 µM (inactive); in the assay with IGROV-1, 60.3 µM (inactive); in the assay on SNB-19, > 100 µM (inactive); in the assay with 786-0 it was > 100 µM (inactive); with CAKI-1 it was > 100 µM (inactive). Also, the GI50 with HL-60 was 74.6 µM (inactive); in the assay with TK-10, > 100 µM (inactive); in the assay on SK-MEL-28 it was > 100 µM (inactive); with SF-268 it was > 100 µM (inactive); in the assay with UO-31, > 100 µM (inactive); in the assay on CCRF-CEM, > 100 µM (inactive).
Turning to `N/C(=N\O)N/N=C/c1cccs1`, the GI50 was 15.8 µM (inactive) in the assay on UACC-62; 79.1 µM in the assay with HCT-15; 59.8 µM (inactive) in the assay with SN12C; 37.8 µM (inactive) with SK-OV-3; 47.1 µM (inactive) with M14; > 100 µM (inactive) in the assay on SW-620. Besides, the GI50 with OVCAR-4 was 34 µM (inactive); in the assay on SF-295, > 100 µM (inactive); with U-251, > 100 µM (inactive); with IGROV-1, 35.4 µM (inactive); in the assay on SNB-19 it was > 100 µM (inactive); with 786-0, > 100 µM (inactive). For the same compound, the GI50 in the assay on CAKI-1 is 34.4 µM (inactive); in the assay on HL-60 it was 28.1 µM (inactive); with TK-10, > 100 µM (inactive); in the assay on SK-MEL-28 it was > 100 µM (inactive); with SF-268, 17.2 µM (inactive); with UO-31 it was 55.1 µM (inactive). For the same compound, the GI50 in the assay on CCRF-CEM was > 100 µM (inactive).
As to `COc1cc(C(=O)Oc2c(C#N)sc3c2c(=O)n(-c2ccccc2)c(=S)n3-c2ccccc2)cc(OC)c1OC`, the GI50 was 24.1 µM (inactive) in the assay with UACC-62; 18.9 µM with HCT-15; 13.8 µM (inactive) with SN12C; 22 µM (inactive) with SK-OV-3; 16.6 µM (inactive) with MOLT-4; 12.8 µM (inactive) in the assay on M14. The GI50 is 24.2 µM (inactive) with SW-620; 26.4 µM (inactive) in the assay with OVCAR-4; 4.14 µM (inactive) with SF-295; 12.5 µM (inactive) in the assay with U-251; 19.1 µM (inactive) in the assay with IGROV-1; 11.6 µM (inactive) in the assay on SNB-19. The GI50 with 786-0 was 15.2 µM (inactive); in the assay with CAKI-1, 21.2 µM (inactive); in the assay on HL-60, 18.8 µM (inactive); with TK-10, 27.7 µM (inactive); with SK-MEL-28 it was 14.2 µM (inactive); in the assay with SF-268 it was 14.3 µM (inactive). The GI50 with CCRF-CEM was 4.72 µM (inactive).
Consider `O=C(CN1CCOCC1)CC(O)(C(F)(F)F)C(F)(F)F`, for which the GI50 with UACC-62 is 44.6 µM (inactive); in the assay on HCT-15 it was 55.5 µM; in the assay on SK-OV-3, > 100 µM (inactive); with MOLT-4, 37.2 µM (inactive); in the assay on M14 it was > 100 µM (inactive); with SW-620, 48.9 µM (inactive). In addition, the GI50 in the assay on OVCAR-4 is > 100 µM (inactive); in the assay with SF-295 it was 67 µM (inactive); in the assay with U-251, 51.4 µM (inactive); in the assay with IGROV-1, 71.8 µM (inactive); in the assay on SNB-19, 65.9 µM (inactive); in the assay on 786-0, > 100 µM (inactive). In addition, the GI50 was 78.3 µM (inactive) in the assay on CAKI-1; 61.7 µM (inactive) in the assay on HL-60; > 100 µM (inactive) in the assay on TK-10; > 100 µM (inactive) in the assay on SK-MEL-28; 51.3 µM (inactive) in the assay on UO-31; 56.4 µM (inactive) in the assay with CCRF-CEM.
In the case of `COC(=O)c1c(C(=O)OC)c2ccccn2c1-c1cc(C)cc2c1C(=O)C=CC2=O`, the GI50 in the assay with UACC-62 was 11.7 µM (inactive); in the assay on HCT-15, 10.6 µM; with SN12C it was 12.7 µM (inactive); with SK-OV-3 it was > 10 µM (inactive); in the assay with MOLT-4, 1.38 µM (inactive); with M14, 9.48 µM (inactive). For the same compound, the GI50 in the assay with SW-620 was 2.89 µM (inactive); in the assay with OVCAR-4 it was 14.2 µM (inactive); with SF-295, 12.2 µM (inactive); with IGROV-1, 12.8 µM (inactive); with SNB-19 it was 13.7 µM (inactive); with 786-0 it was 5.48 µM (inactive). Moreover, the GI50 is 5.08 µM (inactive) in the assay with CAKI-1; 2.24 µM (inactive) in the assay with HL-60; 14.1 µM (inactive) in the assay on TK-10; 12.9 µM (inactive) in the assay on SK-MEL-28; 13.9 µM (inactive) in the assay with SF-268; 2.38 µM (inactive) in the assay on UO-31. The GI50 in the assay with CCRF-CEM is 0.796 µM (active).
Regarding `CC1C2CC(C/C2=N/O)C1(C)C` (configuration not stated), the GI50 in the assay on UACC-62, with SN12C, in the assay on SK-OV-3, in the assay with MOLT-4, with M14 and in the assay with SW-620 was > 100 µM (inactive) throughout. The GI50 in the assay with OVCAR-4, in the assay with SF-295, with U-251, with IGROV-1, with SNB-19 and in the assay with 786-0 was > 100 µM (inactive) each time. Moreover, the GI50 in the assay on CAKI-1, in the assay on HL-60, with TK-10, with SK-MEL-28, with SF-268 and with UO-31 was > 100 µM (inactive) each time. In the assay on CCRF-CEM, the GI50 was > 100 µM (inactive).
With `CCOc1cccc(/C=N/N=C2\C(=O)Nc3c(Cl)cc(Cl)cc32)c1O`, the GI50 in the assay with UACC-62 is 58.2 µM (inactive); with HCT-15, 54.6 µM; in the assay on SN12C, 73.6 µM (inactive); in the assay with SK-OV-3, > 100 µM (inactive); with MOLT-4 it was 28.4 µM (inactive); in the assay with M14 it was 73.3 µM (inactive). The GI50 with SW-620 was 75.9 µM (inactive); in the assay on OVCAR-4 it was 62.8 µM (inactive); in the assay on SF-295, 62.5 µM (inactive); in the assay with U-251, 46.5 µM (inactive); with IGROV-1 it was 74.8 µM (inactive); in the assay on SNB-19, > 100 µM (inactive). For the same compound, the GI50 was 74.6 µM (inactive) in the assay on 786-0; > 100 µM (inactive) in the assay on CAKI-1; 33.4 µM (inactive) in the assay with HL-60; > 100 µM (inactive) with TK-10; 71.8 µM (inactive) with SK-MEL-28; 34 µM (inactive) in the assay with UO-31. In the assay with CCRF-CEM, the GI50 was 31.6 µM (inactive).
`O=c1c2sc(=S)n(-c3ccc(F)cc3)c2ncn1/N=C/c1ccc(F)cc1F`: the GI50 in the assay with UACC-62 is 27.7 µM (inactive); in the assay with HCT-15, 88.9 µM; with SN12C, 31.3 µM (inactive); in the assay with SK-OV-3, 25.4 µM (inactive); in the assay on M14, 23.2 µM (inactive); in the assay on SW-620, > 100 µM (inactive). For the same compound, the GI50 in the assay on OVCAR-4 is 18.9 µM (inactive); in the assay with SF-295, 21.1 µM (inactive); in the assay on U-251 it was 23.4 µM (inactive); in the assay with IGROV-1 it was 24.6 µM (inactive); in the assay with SNB-19, 26.6 µM (inactive); in the assay on 786-0, 17.2 µM (inactive). Besides, the GI50 was 14.4 µM (inactive) with CAKI-1; 22.8 µM (inactive) with HL-60; 18.1 µM (inactive) with TK-10; 29.8 µM (inactive) with SK-MEL-28; 18.7 µM (inactive) with SF-268; 24.9 µM (inactive) in the assay with UO-31. For the same compound, in the assay with CCRF-CEM, the GI50 was 63.7 µM (inactive).
